What was measured:
Assay type in all cases: cell-based
[1] = test system: Wnt activity (Sp5-Luc reporter, SW480 colon carcinoma cells); assay: Wnt activity screening assay, Sp5-Luc reporter gene in SW480 cells; conditions: Homo sapiens; for inhibition at 10 µM: SW480, read-out: percent inhibition at 10 μM; for EC50: Sp5-Luc reporter, SW480 cells, overnight incubation
Description: The screening assay for Wnt activity is described as follows. Reporter cell lines can be generated by stably transducing cancer cell lines (e.g., colon cancer) or primary cells (e.g., IEC-6 intestinal cells) with a lentiviral construct that includes a Wnt-responsive promoter driving expression of the firefly luciferase gene.
SW480 colon carcinoma cells were transduced with a lentiviral vector expressing luciferase with a human Sp5 promoter consisting of a sequence of eight TCF/LEF binding sites. SW480 cells stably expressing the Sp5-Luc reporter gene and a hygromycin resistance gene were selected by treatment with 150 μg/mL of hygromycin for 7 days. These stably transduced SW480 cells were expanded in cell culture and used for all further screening activities. […] For Sp5-Luc reporter gene assays, the cells were plated at 4,000 cells/well in 384-well plates with medium containing 1% fetal bovine serum and incubated overnight at 37° C. and 5% CO2. Following incubation, 20 μl of BrightGlo luminescence reagent (Promega) was added to each well of the 384-well assay plates. The plates were placed on an orbital shaker for 2 min and then luminescence was quantified using the Envision (Perkin Elmer) plate reader. Readings were normalized to DMSO only treated cells, and normalized activities were utilized for EC50 calculations using the dose-response log (inhibitor) vs. response−variable slope (four parameters) nonlinear regression feature available in GraphPad Prism 5.0 (or Dotmatics).

[2] = test system: primary human fibroblasts derived from IPF patients (LL29 cells); assay: Inhibition of fibrotic process, αSMA staining in TGF-β1 treated fibroblasts; conditions: Fibroblast; for EC50: 96 h, LL29 cells, TGF-β1 20 ng/mL, 4 days, % αSMA positive cells; for inhibition at 10 µM: read-out: percent inhibition at 10 μM
Procedure: Representative compounds were screened using primary human fibroblasts (derived from IPF patients) treated with TGF-β1 to determine their ability to inhibit the fibrotic process.
LL29 cells are plated at 1,500 cells/well in 80 μL/well F12 medium supplemented with 1% Fetal Bovine Serum. […] Wells treated with TGF-31 and containing DMSO were used as controls. […] Following incubation for 4 days, SYTOX green nucleic acid stain (Life Technologies [Thermo Fisher Scientific]) was added to the wells at a final concentration of 1 μM and incubated at room temperature for 30 min.

[3] = test system: primary human mesenchymal stem cells (hMSCs); assay: Induction of chondrogenesis in hMSCs (nodule count); conditions: 6 days; for Emax: relative to TGF-β3 (10 ng/mL) positive control, read-out: Max. Activity as % TGF-β3 activity; for EC50: concentration required to induce 50% levels of chondrogenesis vs TGF-β3, read-out: Conc (nM) of 50% TGF-β3 activity
Description: Representative compounds were screened using primary human mesenchymal stem cells (hMSCs) to determine their ability to induce chondrogenesis (process by which cartilage is developed).
Primary human mesenchymal stem cells (hMSCs) were purchased from Lonza (Walkersville, Md.) and expanded in Mesenchymal Stem Cell Growth Media (Lonza). Cells between passage 3 and 6 were used for the experiments.
To image chondrogenic nodules, the cells were fixed using 4% formaldehyde (Electron Microscopy Sciences), and stained with 2 μg/mL Rhodamine B (Sigma-Aldrich) and 20 μM Nile Red (Sigma-Aldrich) [Johnson K., et. al, A Stem Cell-Based Approach to Cartilage Repair, Science, (2012). […] Number of nodules in each well was normalized to the average of 3 DMSO treated wells on the same plate using Excel (Microsoft Inc.). The normalized averages (fold change over DMSO) of 3 replicate wells for each compound concentration were calculated. Due to solubility limitations of some of the compounds, curve fitting was incomplete leading to inaccurate EC50 determinations.
Using TGF-β3 as a positive control, the concentration of representative compounds required to induce 50% levels of chondrogenesis is reported. In addition, the maximum activity of each compound and the respective dose that each compound reached maximum chondrogenesis activity is reported.

IL-6 = IL-6 inhibition in LPS-stimulated THP-1 cells (HTRF); conditions: Homo sapiens; for inhibition at 10 µM: THP-1, read-out: percent inhibition at 10 μM; for EC50: THP-1 cells, LPS 500 ng/mL, 22 hours, IL6 HTRF
Procedure: THP-1 cells were cultured in basal media with 1% FBS for 24 hours before the start of the assay. […] THP-1 cells were plated at 5000 cells/well in the 384-well plates and incubated at 37° C. for 2 h. 500 ng/mL of LPS was added after 2 hours and cells were incubated for another 22 hours at 37° C. Plates were spun in a centrifuge for 1 minute at […] and a mixture of anti-IL6 XL665, and anti-IL6 Cryptate diluted in reconstitution buffer (Cisbio Inc.) was added to each well. Following incubation for 3 hrs at room temperature, Homogeneous Time-Resolved Fluorescence (HTRF) was measured using the Envision (Perkin Elmer) at 665 nm and […]. The ratio of fluorescence at 665 nm to 620 nm was used as a readout for IL6 quantification. All samples were processed in duplicate. Readings were normalized to DMSO treated cells and normalized activities were utilized for EC50 calculations using the dose-response log (inhibitor) vs. response−variable slope (four parameters) nonlinear regression feature available in GraphPad Prism 5.0 (or Dotmatics).

SW480 colon cancer cells = assay: Cell viability assay (CellTiter-Blue); conditions: Homo sapiens; for EC50: 96 h, SW480 cell viability, four days; for inhibition at 10 µM: SW480, 96 h, read-out: percent inhibition at 10 μM
Procedure: Representative compounds were screened using the following assay procedure to assess the effect on cell viability as described below.
Approximately 2×10^3 SW480 colon cancer cells were seeded into each well and allowed to incubate in the presence or absence of compound for four days at 37° C./5% CO2. Eight replicates of DMSO-treated cells served as controls and cells treated with compound were performed in duplicate.
After incubation, 20 μL of CellTiter-Blue (Promega) was added to each well allowed to incubate for approximately 3 hours. This reagent was a buffered solution which contains resazurin, metabolically active cells were able to reduce rezarurin (blue) into resorufin (pink) which was highly fluorescent. This measured fluorescence was used as a readout for cell viability.

Structure (SMILES): O=C(Nc1cncc(-c2cnc3[nH]nc(-c4cc5c(-c6ccncc6)cncc5[nH]4)c3c2)c1)C1CCC1 [Compound 133, N-(5-(3-(4-(Pyridin-4-yl)-1H-pyrrolo[2,3-c]pyridin-2-yl)-1H-pyrazolo[3,4-b]pyridin-5-yl)pyridin-3-yl)cyclobutanecarboxamide]
- inhibition at 10 µM [1]: 7%
- EC50 [1]: > 10 µM
- EC50 [2]: 4.92 µM
- Emax [3]: 43%
- inhibition at 10 µM (IL-6): 43.3%
- EC50 (IL-6): > 10 µM
- EC50 (SW480 colon cancer cells): > 10 µM
- inhibition at 10 µM (SW480 colon cancer cells): 18.9%

Structure (SMILES): Cc1ncc(-c2cnc3[nH]nc(-c4cc5c(-c6ccncc6)cncc5[nH]4)c3c2)n1C [Compound 573, 5-(1,2-Dimethyl-1H-imidazol-5-yl)-3-(4-(pyridin-4-yl)-1H-pyrrolo[2,3-c]pyridin-2-yl)-1H-pyrazolo[3,4-b]pyridine]
- inhibition at 10 µM [1]: 7.1%
- EC50 [1]: > 10 µM
- EC50 [2]: > 10 µM
- inhibition at 10 µM [2]: 46.7%
- EC50 [3]: 10 nM
- Emax [3]: 194%
- inhibition at 10 µM (IL-6): 0%
- EC50 (IL-6): > 10 µM
- EC50 (SW480 colon cancer cells): > 10 µM
- inhibition at 10 µM (SW480 colon cancer cells): 19.8%

Structure (SMILES): Nc1cncc(-c2cnc3[nH]nc(-c4cc5c(-c6ccncc6)cncc5[nH]4)c3c2)c1 [Compound 115, 5-(3-(4-(Pyridin-4-yl)-1H-pyrrolo[2,3-c]pyridin-2-yl)-1H-pyrazolo[3,4-b]pyridin-5-yl)pyridin-3-amine]
- inhibition at 10 µM [1]: 13.9%
- EC50 [1]: > 10 µM
- EC50 [2]: 3.55 µM
- Emax [3]: 32%
- EC50 (IL-6): 0.412 µM
- EC50 (SW480 colon cancer cells): > 10 µM
- inhibition at 10 µM (SW480 colon cancer cells): 17.8%

Structure (SMILES): Fc1ccc(-c2cncc3[nH]c(-c4n[nH]c5ncc(-c6cncc(CN7CCCC7)c6)cc45)cc23)cc1 [Compound 42, 3-(4-(4-Fluorophenyl)-1H-pyrrolo[2,3-c]pyridin-2-yl)-5-(5-(pyrrolidin-1-ylmethyl)pyridin-3-yl)-1H-pyrazolo[3,4-b]pyridine]
- EC50 [1]: 2.15 µM
- EC50 [2]: 1.29 µM
- EC50 [3]: 2700 nM
- Emax [3]: 133%
- EC50 (IL-6): 3.27 µM
- EC50 (SW480 colon cancer cells): 0.94 µM

Structure (SMILES): CN(C)CCOc1cncc(-c2cnc3[nH]nc(-c4cc5c(-c6ccc(F)cc6)cncc5[nH]4)c3c2)c1 [Compound 531, 2-((5-(3-(4-(4-Fluorophenyl)-1H-pyrrolo[2,3-c]pyridin-2-yl)-1H-pyrazolo [3,4-b]pyridin-5-yl)pyridin-3-yl)oxy)-N,N-dimethylethan-1-amine]
- inhibition at 10 µM [1]: 48.5%
- EC50 [1]: > 10 µM
- EC50 [2]: > 10 µM
- inhibition at 10 µM [2]: 11.4%
- Emax [3]: 28%
- inhibition at 10 µM (IL-6): 22.9%
- EC50 (IL-6): > 10 µM
- EC50 (SW480 colon cancer cells): 3.6 µM

Structure (SMILES): Fc1cccc(-c2cncc3[nH]c(-c4n[nH]c5ncc(-c6cncc(CN7CCCCC7)c6)cc45)cc23)c1 [Compound 15, 3-(4-(3-Fluorophenyl)-1H-pyrrolo[2,3-c]pyridin-2-yl)-5-(5-(piperidin-1-ylmethyl)pyridin-3-yl)-1H-pyrazolo[3,4-b]pyridine]
- EC50 [1]: 3.12 µM
- EC50 [2]: 1.97 µM
- EC50 [3]: 10 nM
- Emax [3]: 108%
- inhibition at 10 µM (IL-6): 41%
- EC50 (IL-6): > 10 µM
- EC50 (SW480 colon cancer cells): 3.27 µM

Structure (SMILES): CS(=O)(=O)NCc1cc(F)cc(-c2cncc3[nH]c(-c4n[nH]c5ncc(-c6cccnc6)cc45)cc23)c1 [Compound 480, N-(3-Fluoro-5-(2-(5-(pyridin-3-yl)-1H-pyrazolo[3,4-b]pyridin-3-yl)-1H-pyrrolo [2,3-c]pyridin-4-yl)benzyl)methane sulfonamide]
- EC50 [1]: 1.46 µM
- EC50 [2]: 2.24 µM
- EC50 [3]: 2700 nM
- Emax [3]: 66%
- EC50 (IL-6): 0.237 µM
- EC50 (SW480 colon cancer cells): 3.65 µM

Structure (SMILES): CC(C)CC(=O)Nc1cncc(-c2cnc3[nH]nc(-c4cc5c(-c6cc(F)cc(CNS(C)(=O)=O)c6)cncc5[nH]4)c3c2)c1 [Compound 478, N-(5-(3-(4-(3-Fluoro-5-(methylsulfonamidomethyl)phenyl)-1H-pyrrolo[2,3-c]pyridin-2-yl)-1H-pyrazolo[3,4-b]pyridin-5-yl)pyridin-3-yl)-3-methylbutanamide]
- EC50 [1]: 2.55 µM
- EC50 [2]: > 10 µM
- inhibition at 10 µM [2]: 21.2%
- Emax [3]: 46%
- EC50 (IL-6): 1.17 µM
- EC50 (SW480 colon cancer cells): 7.2 µM

Structure (SMILES): c1cncc(-c2cncc3[nH]c(-c4n[nH]c5ncc(-c6cncnc6)cc45)cc23)c1 [Compound 111, 3-(4-(Pyridin-3-yl)-1H-pyrrolo[2,3-c]pyridin-2-yl)-5-(pyrimidin-5-yl)-1H-pyrazolo[3,4-b]pyridine]
- inhibition at 10 µM [1]: 11.9%
- EC50 [1]: > 10 µM
- EC50 [2]: 1.72 µM
- Emax [3]: 24%
- EC50 (IL-6): 6.59 µM
- EC50 (SW480 colon cancer cells): > 10 µM
- inhibition at 10 µM (SW480 colon cancer cells): 8.6%

Structure (SMILES): CC(C)C(=O)Nc1cncc(-c2cnc3[nH]nc(-c4cc5c(-c6cc(F)cc(CNS(C)(=O)=O)c6)cncc5[nH]4)c3c2)c1 [Compound 485, N-(5-(3-(4-(3-Fluoro-5-(methylsulfonamidomethyl)phenyl)-1H-pyrrolo[2,3-c]pyridin-2-yl)-1H-pyrazolo[3,4-b]pyridin-5-yl)pyridin-3-yl)isobutyramide]
- inhibition at 10 µM [1]: 49.8%
- EC50 [1]: > 10 µM
- EC50 [2]: > 10 µM
- inhibition at 10 µM [2]: 0%
- EC50 [3]: 30 nM
- Emax [3]: 60%
- EC50 (IL-6): 0.027 µM
- EC50 (SW480 colon cancer cells): > 10 µM
- inhibition at 10 µM (SW480 colon cancer cells): 14%

Structure (SMILES): CCNCc1cncc(-c2cnc3[nH]nc(-c4cc5c(-c6ccccc6F)cncc5[nH]4)c3c2)c1 [Compound 62, N-((5-(3-(4-(2-Fluorophenyl)-1H-pyrrolo[2,3-c]pyridin-2-yl)-1H-pyrazolo [3,4-b]pyridin-5-yl)pyridin-3-yl)methyl)ethanamine]
- EC50 [1]: 2.29 µM
- EC50 [2]: 2.67 µM
- Emax [3]: 37%
- EC50 (IL-6): 9.08 µM
- EC50 (SW480 colon cancer cells): 1.91 µM

Structure (SMILES): Cc1ccncc1-c1cnc2[nH]nc(-c3cc4c(-c5ccc(F)cc5)cncc4[nH]3)c2c1 [Compound 33, 3-(4-(4-Fluorophenyl)-1H-pyrrolo[2,3-c]pyridin-2-yl)-5-(4-methylpyridin-3-yl)-1H-pyrazolo[3,4-b]pyridine]
- inhibition at 10 µM [1]: 49.4%
- EC50 [1]: > 10 µM
- EC50 [2]: 1.04 µM
- EC50 [3]: 10 nM
- Emax [3]: 67%
- inhibition at 10 µM (IL-6): 26.1%
- EC50 (IL-6): > 10 µM
- EC50 (SW480 colon cancer cells): 2.09 µM

Source: patent US20180221352A1, “3-(1H-PYRROLO[2,3-C]PYRIDIN-2-YL)-1H-PYRAZOLO[3,4-B]PYRIDINES AND THERAPEUTIC USES THEREOF” (Samumed, LLC, priority 2015, published 2018)
